Laboratory results as given in ChEMBL document CHEMBL5465560, “Selectivity Literature for EUbOPEN Chemogenomic Library” (2024).
Values belong to the molecule of their own block, whether it stands above or below them.

Experiments:
[1] = target: Serine/threonine-protein kinase 16 (Homo sapiens, UniProt O75716); assay: Selectivity interaction (ActivX KiNativ screen (kinase selectivity in THP-1 cell lysates)) EUB0000639a STK16; type: subcellular; settings: lysate, at 0.01 µM
[2] = target: T1, Ephrin type-A receptor 3 (Homo sapiens) (UniProt P29320); assay: Selectivity interaction (LanthaScreen Eu Kinase Binding Assay) EUB0001632a EPHA3; settings: at 10 µM
T1 sequence (whole entry): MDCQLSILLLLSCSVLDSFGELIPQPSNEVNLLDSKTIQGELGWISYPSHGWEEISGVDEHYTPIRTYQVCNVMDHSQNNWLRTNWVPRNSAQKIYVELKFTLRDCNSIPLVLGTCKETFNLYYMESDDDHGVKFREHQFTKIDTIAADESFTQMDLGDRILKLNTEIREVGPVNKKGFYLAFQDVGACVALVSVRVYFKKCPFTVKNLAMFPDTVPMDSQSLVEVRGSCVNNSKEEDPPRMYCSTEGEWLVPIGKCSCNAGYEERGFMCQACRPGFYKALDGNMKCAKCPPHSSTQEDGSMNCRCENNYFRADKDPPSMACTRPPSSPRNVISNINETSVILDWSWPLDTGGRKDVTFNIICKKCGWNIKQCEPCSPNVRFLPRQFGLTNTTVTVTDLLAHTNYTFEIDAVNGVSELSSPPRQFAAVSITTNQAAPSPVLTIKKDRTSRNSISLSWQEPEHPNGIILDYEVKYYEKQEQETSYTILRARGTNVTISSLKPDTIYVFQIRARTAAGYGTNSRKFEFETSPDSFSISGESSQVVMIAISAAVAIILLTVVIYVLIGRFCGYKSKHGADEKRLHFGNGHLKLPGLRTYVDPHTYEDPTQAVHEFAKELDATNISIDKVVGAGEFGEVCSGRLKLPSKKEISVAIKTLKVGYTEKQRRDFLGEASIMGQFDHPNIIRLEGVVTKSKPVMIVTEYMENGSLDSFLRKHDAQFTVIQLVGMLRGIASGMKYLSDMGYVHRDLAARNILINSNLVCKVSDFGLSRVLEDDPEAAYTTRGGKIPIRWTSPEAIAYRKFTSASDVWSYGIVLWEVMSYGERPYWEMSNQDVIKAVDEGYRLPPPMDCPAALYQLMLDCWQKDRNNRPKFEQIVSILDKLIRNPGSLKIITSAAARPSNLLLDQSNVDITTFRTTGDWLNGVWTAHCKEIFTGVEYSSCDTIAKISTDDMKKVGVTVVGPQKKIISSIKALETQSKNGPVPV

[3] = target: Cyclin-dependent kinase 9 (Homo sapiens, UniProt P50750); assay: Selectivity interaction (ActivX KiNativ screen (ex vivo kinase selectivity in human PBMCs)) EUB0001619a CDK9; type: cell-based; settings: PBMC, at 1 µM
[4] = target: T2, Dual specificity mitogen-activated protein kinase kinase 6 (Homo sapiens) (UniProt P52564); assay: Selectivity interaction (KinomeScan (DiscoverX)) EUB0001619a MAP2K6; settings: at 1 µM
T2 sequence (whole entry): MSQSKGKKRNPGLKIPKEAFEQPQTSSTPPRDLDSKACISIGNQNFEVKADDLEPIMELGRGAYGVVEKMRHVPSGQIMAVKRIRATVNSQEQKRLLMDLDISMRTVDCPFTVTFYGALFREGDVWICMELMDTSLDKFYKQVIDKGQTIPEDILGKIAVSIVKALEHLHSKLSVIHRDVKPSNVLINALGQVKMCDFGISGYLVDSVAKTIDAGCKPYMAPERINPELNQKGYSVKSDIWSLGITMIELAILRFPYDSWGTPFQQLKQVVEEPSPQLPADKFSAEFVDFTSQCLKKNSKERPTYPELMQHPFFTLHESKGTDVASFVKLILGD

[5] = target: Serine/threonine-protein kinase/endoribonuclease IRE1 (Homo sapiens) (UniProt O75460); assay: Selectivity interaction (KinomeScan (DiscoverX)) EUB0000607a ERN1; settings: at 10 µM
[6] = target: T3, Diacylglycerol kinase eta (Homo sapiens) (UniProt Q86XP1); assay: Selectivity interaction (Kinase panel (KiNativ target engagement assay in Jurkat cells)) EUB0001635a DGKH; type: cell-based; settings: Selectivity number of off-targets 0.0, Selectivity number of targets 233.0, Source Knowledge https://www.sciencedirect.com/science/article/pii/S2451945619300674?via%3Dihub, at 1 µM
T3 sequence (whole entry): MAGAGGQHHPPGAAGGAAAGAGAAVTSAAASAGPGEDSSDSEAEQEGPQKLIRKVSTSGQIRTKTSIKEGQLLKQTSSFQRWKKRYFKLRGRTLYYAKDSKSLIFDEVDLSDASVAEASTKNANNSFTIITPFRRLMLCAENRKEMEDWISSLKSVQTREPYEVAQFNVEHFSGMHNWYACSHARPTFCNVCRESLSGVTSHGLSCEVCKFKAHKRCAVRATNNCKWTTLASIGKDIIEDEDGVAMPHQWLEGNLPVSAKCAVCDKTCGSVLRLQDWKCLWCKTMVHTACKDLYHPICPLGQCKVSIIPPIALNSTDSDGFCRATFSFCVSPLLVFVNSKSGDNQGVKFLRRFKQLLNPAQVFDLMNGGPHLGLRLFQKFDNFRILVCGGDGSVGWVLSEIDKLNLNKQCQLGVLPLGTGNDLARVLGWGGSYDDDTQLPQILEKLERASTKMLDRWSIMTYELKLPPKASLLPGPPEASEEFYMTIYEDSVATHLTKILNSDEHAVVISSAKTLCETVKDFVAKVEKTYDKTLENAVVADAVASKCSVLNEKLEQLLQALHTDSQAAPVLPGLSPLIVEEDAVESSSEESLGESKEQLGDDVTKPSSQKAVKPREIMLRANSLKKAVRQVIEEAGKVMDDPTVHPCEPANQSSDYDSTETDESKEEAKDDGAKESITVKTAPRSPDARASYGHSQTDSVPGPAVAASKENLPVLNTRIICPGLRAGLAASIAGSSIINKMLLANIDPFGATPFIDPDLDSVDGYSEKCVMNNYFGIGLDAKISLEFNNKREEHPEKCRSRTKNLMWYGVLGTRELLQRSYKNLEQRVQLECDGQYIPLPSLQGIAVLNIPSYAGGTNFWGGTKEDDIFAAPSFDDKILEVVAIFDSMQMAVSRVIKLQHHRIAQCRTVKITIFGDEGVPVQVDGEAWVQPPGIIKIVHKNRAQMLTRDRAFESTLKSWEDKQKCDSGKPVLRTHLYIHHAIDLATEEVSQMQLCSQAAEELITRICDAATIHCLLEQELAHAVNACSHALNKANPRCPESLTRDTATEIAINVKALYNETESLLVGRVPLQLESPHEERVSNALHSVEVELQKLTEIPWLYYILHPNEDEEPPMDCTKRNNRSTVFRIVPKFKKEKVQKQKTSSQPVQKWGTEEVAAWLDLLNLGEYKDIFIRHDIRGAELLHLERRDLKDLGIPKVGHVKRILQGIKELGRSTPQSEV

[7] = target: Serine/threonine-protein kinase 32A (Homo sapiens) (UniProt Q8WU08); assay: Selectivity interaction (KinomeScan (DiscoverX)) EUB0000666a STK32A; settings: at 10 µM
Sequence of Serine/threonine-protein kinase 32A (Homo sapiens) (Q8WU08 whole entry): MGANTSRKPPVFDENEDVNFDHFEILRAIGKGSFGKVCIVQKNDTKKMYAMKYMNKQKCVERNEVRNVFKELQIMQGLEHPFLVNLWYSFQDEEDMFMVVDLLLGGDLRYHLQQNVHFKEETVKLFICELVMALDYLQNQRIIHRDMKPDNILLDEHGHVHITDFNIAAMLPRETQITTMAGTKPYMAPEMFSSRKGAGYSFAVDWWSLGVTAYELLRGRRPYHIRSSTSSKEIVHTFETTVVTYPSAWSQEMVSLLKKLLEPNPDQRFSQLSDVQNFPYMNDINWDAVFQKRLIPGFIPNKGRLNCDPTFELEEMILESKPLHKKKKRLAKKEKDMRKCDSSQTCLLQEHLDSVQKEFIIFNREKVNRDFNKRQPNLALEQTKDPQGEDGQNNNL

Sequence of Cyclin-dependent kinase 9 (P50750 whole entry): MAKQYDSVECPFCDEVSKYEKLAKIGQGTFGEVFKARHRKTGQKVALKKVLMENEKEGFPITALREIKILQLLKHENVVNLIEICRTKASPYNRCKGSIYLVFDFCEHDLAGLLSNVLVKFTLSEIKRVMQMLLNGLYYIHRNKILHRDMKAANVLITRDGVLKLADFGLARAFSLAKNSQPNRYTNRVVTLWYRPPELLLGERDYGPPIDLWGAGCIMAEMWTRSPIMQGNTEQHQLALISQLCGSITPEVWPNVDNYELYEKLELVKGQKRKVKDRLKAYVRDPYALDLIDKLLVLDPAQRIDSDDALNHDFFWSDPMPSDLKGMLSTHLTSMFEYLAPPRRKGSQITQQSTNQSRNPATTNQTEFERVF
Sequence of Serine/threonine-protein kinase 16 (O75716 whole entry): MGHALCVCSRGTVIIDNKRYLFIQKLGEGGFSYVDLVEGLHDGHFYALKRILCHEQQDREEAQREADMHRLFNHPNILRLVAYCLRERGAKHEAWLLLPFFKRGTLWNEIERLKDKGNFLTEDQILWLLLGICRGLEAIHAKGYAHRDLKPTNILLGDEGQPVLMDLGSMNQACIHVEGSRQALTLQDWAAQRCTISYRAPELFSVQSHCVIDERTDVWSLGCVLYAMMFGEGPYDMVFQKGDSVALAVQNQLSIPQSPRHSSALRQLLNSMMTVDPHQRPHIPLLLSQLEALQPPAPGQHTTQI
Sequence of Serine/threonine-protein kinase/endoribonuclease IRE1 (Homo sapiens) (O75460 19-977 limits assumed): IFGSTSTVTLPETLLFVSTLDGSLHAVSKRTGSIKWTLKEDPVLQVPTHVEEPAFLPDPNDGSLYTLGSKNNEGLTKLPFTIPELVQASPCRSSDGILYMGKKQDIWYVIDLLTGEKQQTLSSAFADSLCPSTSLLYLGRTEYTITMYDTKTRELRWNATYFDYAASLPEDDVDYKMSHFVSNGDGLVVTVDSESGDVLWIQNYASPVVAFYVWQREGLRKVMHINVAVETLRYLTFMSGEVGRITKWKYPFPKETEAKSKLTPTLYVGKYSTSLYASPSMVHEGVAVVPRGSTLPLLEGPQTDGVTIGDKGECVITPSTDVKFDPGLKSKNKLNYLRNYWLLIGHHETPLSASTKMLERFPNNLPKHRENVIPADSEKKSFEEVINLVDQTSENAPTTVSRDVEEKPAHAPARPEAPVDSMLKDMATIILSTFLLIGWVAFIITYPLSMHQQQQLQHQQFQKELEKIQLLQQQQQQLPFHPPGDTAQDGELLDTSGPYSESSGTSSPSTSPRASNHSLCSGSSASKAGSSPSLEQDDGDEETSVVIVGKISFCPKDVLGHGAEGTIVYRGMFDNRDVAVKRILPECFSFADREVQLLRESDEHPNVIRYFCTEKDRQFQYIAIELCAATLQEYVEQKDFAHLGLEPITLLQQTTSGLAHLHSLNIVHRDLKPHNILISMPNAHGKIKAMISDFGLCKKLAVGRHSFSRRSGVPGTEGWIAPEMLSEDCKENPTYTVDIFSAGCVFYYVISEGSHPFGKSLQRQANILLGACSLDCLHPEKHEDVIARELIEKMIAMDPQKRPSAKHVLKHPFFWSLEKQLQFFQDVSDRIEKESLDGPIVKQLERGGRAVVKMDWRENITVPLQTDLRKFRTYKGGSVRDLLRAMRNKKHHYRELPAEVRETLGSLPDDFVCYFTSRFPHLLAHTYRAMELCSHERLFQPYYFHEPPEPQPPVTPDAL

- % of inhibition [1]: 21.2%
Compound: CC[C@@H]1[C@H](F)C(=O)N[C@@H]1COc1nccc2cc(C(N)=O)c(OC)cc12 [ZIMLOVISERTIB]

- % of inhibition [2]: -19.5%
Compound: Cn1cc(-n2cnc3c(NCc4nc5cc(Cl)c(Cl)cc5[nH]4)nc(N4CCOCC4)nc32)cn1

Compound: N#Cc1cccc(-c2c[nH]c3ncnc(N4CCOCC4)c23)c1
- % of inhibition [3]: 22%
- % of control [4]: 80%

Compound: CNC(=O)Nc1ccc(-c2nc(N3CC4CCC(C3)O4)c3cnn(C4CCC5(CC4)OCCO5)c3n2)cc1
- % of control [5]: 93%

Compound: C=CC(=O)Nc1ccc(C(=O)Nc2[nH]nc3c2CN(C(=O)N[C@H](CN(C)C)c2ccccc2)C3(C)C)cc1
- % of engagement [6]: 16.5%

Compound: O=C(NOC[C@H](O)CO)c1ccc(F)c(F)c1Nc1ccc(I)cc1F
- % of control [7]: 80%
